# In US20080207522A1, “Antimicrobial Peptides” (priority 2004, published 2008):
# Several values for one entry are separate records, joined by “and”; a condition that tells them apart may be missing. Equal entries are not always repeated. Where two headings read alike, the source gives them in different places. Ends that are not written are not given here.
# Key:
# [1] = system: Pseudomonas aeruginosa strain H1001 fliC::luxCDABE; assay: Luminescence-based assay for the non-cleaved (bound) peptides on cellulose membranes; assay type: cell-based
# Outline: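 Peptides remained bound to cellulose spots, which were ethanol-washed and equilibrated in 100 mM Tris pH 7.3. Constitutively lux-expressing P. aeruginosa (OD600 0.35 culture diluted 1:25) added in 10 mM Tris-HCl pH 7.3, 20 mM glucose at 37° C. Luminescence (RLU) followed over 14 time points; peptides binned into six activity classes.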
# [2] = system: Pseudomonas aeruginosa strain H1001; assay: Assay for the cleaved (free, soluble) peptides from cellulose support, luminescence killing assay; assay type: cell-based; parameters: key: 1: Peptides showing stronger killing than Bac2A at a 4 to 8-fold higher dilution; Peptides showing stronger killing compared to that of Bac2A at a 4-fold higher dilution; 3: Peptides similar to Bac2A; 4: Peptides similar to Bac2A at the highest concentration but demonstrating weaker killing at a 2-fold dilution; 5: Peptides giving very weak or no killing at a 2-fold dilution; 6: Peptides with weak killing activity at the highest concentration
# Outline: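 Cellulose-synthesized peptides (amidated C-terminus, two β-alanines) cleaved by ammonia, released from punched spots 30 min at 37 °C, then serially diluted. P. aeruginosa H1001 (constitutive fliC::luxCDABE) overnight culture diluted 1:500 in LB or 100 mM Tris pH 7.3/20 mM glucose. Killing followed as time-dependent luminescence loss at 37 °C.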
# [3] = system: Escherichia coli UB1005
# Description: (§1) Minimal inhibitory concentration (MIC) determination. The MICs of the peptides were measured using a modified broth microdilution method in Mueller Hinton (MH) medium. Wu et al., J. Biol. Chem. 274: 29-35, 1999. Briefly, the peptides were dissolved and stored in glass vials. The assay was performed in sterile 96-well polypropylene microtitre plates were used. Serial dilutions of the peptides to be assayed were performed in 0.01% acetic acid (Fisher) containing 0.2% bovine serum albumin (Boehringer Mannheim GmbH) at 10× the desired final concentration. Ten microlitres of the 10× peptides were added to each well of a 96-well polypropylene plate containing 90 μl of MH media per well. Bacteria were added to the plate from an overnight culture at 2-7×10^5 colony forming units/ml and incubated over night at 37° C. The MIC was taken as the concentration at which no growth was observed.
# (§2) Strains. For the killing assay a mini-Tn5-lux mutant in Pseudomonas aeruginosa H103 was used. The strain is called H1001 and contains a fliC::luxCDABE transcriptional fusion resulting in constitutive expression of luciferase. The bacterial strains used for the antimicrobial activity assays included Escherichia coli UB1005 (F-, nalA37, metB1), a wild-type Salmonella enterica ssp. Typhimurium (S. Typhimurium), wild-type Pseudomonas aeruginosa PAO1 strain H103, Enterococcus faecalis ATCC29212, Staphylococcus aureus ATCC25923, and a clinical isolate of Staphylococcus epidermidis obtained from Dr. D. Speert (Department of Medicine, University of British Columbia). Antifungal activity was tested using a lab isolate of Candida albicans obtained from Dr. B. Dill (Department of Microbiology and Immunology, University of British Columbia).
# (§3) In addition, the parent peptide Bac2A was included in these studies as a standard. The minimal inhibitory concentrations (MIC) were determined for the important medical pathogens Pseudomonas aeruginosa, Escherichia coli, Salmonella typhimurium, Staphylococcus aureus, Staphylococcus epidermidis, Enterococcus faecaelis, and the yeast Candida albicans in Mueller-Hinton media.
# [4] = system: Salmonella enterica ssp. Typhimurium; details: ssp. Typhimurium
# Description: as §1, §2, §3
# [5] = system: Pseudomonas aeruginosa PAO1 strain H103
# Description: as §1, §2, §3
# [6] = system: Staphylococcus epidermidis
# Description: as §1, §2, §3
# [7] = system: Staphylococcus aureus cells; assay: Membrane depolarization with membrane potential-sensitive dye diSC35; assay type: cell-based; details: 20 μg/ml of peptides, diSC35 release, FIG. 4
# Description: FIG. 4 is a graphical representation showing the mechanism of action of peptides assessed by measuring the ability to depolarize Staphylococcus aureus cells using the membrane potential-sensitive dye diSC35. Either 20 μg/ml of peptides or, as a control, 29 μg/ml of gramicidin S (Gram S) were added. Lines are smoothed using a polynomial (to the 6th power) function.
# [8] = system: THP-1 macrophage-like cells; details: at 100 μg/ml
# Description: THP1 cells were cultured in RPMI 1640 medium (supplemented with 10% (v/v) FCS, 1% L-glutamine, and 1 nM sodium pyruvate) in E-toxa-clean (Sigma-Aldrich, Oakville, Ontario, Canada)-washed, endotoxin-free bottle. THP1 cells were counted and 250 μl per well of 2-4×10^4 cells/ml were transferred into a 96 well tissue cultured treated polystyrene microtiterplate (Beckton Dickinson, Franklin Lakes, USA). In addition PMA was added (1.3 nM) and the cells were incubated for three days. After three days the medium were exchanged and Pseudomonas aeruginosa LPS and the peptides were added. The incubation time was four hours and the supernatant was frozen at −20° C. The cells were stained with Tryphan Blue for 2 minutes and washed with PBS two times. The viability of the cells was determined by counting the stained cells over the unstained.
# Cytotoxicity was assessed using PMA-treated, human macrophage THP-1 cell line (FIG. 5).
# [9] = system: Candida albicans
# Description: as §1, §2, §3
# [10] = system: Enterococcus faecalis ATCC29212; details: ATCC29212
# Description: as §1, §2, §3
# [11] = system: Staphylococcus aureus ATCC25923; details: ATCC25923
# Description: as §1, §2, §3
substance,measurement,setting,value
"RLARIVVIRVAR-NH2 [Bac2A, reference compound]",Luminescence at the given time in minutes: 0,"[1]; cellulose-bound peptide, 0 min, listed as Bac001",4374 RLU and 4041 RLU and 4234 RLU and 4425 RLU and 4530 RLU
same,Luminescence at the given time in minutes: 20,"[1]; cellulose-bound peptide, 20 min, listed as Bac001",6729 RLU and 6352 RLU and 6373 RLU and 6323 RLU and 6411 RLU
same,Luminescence at the given time in minutes: 40,"[1]; cellulose-bound peptide, 40 min, listed as Bac001",2607 RLU and 2249 RLU and 1840 RLU and 2721 RLU
same,Luminescence at the given time in minutes: 100,"[1]; cellulose-bound peptide, 100 min, listed as Bac001",48 RLU and 35 RLU and 50 RLU and 53 RLU and 57 RLU
same,Activity Class bound,[1]; uncleaved cellulose-bound peptides,3 (Peptides similar to Bac2A resulting in lux values of less than 500 after 240 min.)
same,inhibition of light production (killing) over 10 consecutive cycles,"[1]; uncleaved peptide spots re-used 10 times, 40 h exposure to bacteria per cycle",very similar inhibition of light production (killing) was observed
same,Soluble Class,"[2]; Table 5, free peptides",3
same,Activity Class Soluble,"[2]; free (cleaved) peptides, killing relative to Bac2A",3
same,MIC E. coli,"[3]; Table 4a, Mueller-Hinton media, average of three measurements",17 mg/L
same,MIC E. coli,[3]; Table 6,17 mg/L
same,MIC S. Typhim.,[4],34 mg/L
same,MIC S. typhimurium,[4],34 mg/L
same,difference in MIC between high and low Mg2+ conditions,"[5]; P. aeruginosa, Table 5",4 fold
same,MIC P. aerug,[5]; PAO1,50 mg/L
same,MIC P. aeruginosa,[5]; PAO1,50 mg/L
same,MIC P. aeruginosa Muller Hinton Media,[5]; PAO1,54 mg/L
same,MIC P. aeruginosa With 10 μM Mg,[5]; PAO1,18 mg/L
same,MIC P. aeruginosa With 2 mM Mg,[5]; PAO1,73 mg/L
same,MIC S. epi.,[6],4 mg/L
same,MIC S. epidermidis,[6],4 mg/L
same,ability to depolarize the membrane of S. aureus,[7],able to depolarize the membrane of S. aureus very quickly
RRAAVVLIVIRR-NH2 (C-terminus assumed) [Bac020],cytotoxic effect against a human macrophage cell line,[8],no cytotoxic effect
same,MIC C. albicans,[9],11 mg/L
same,MIC E. faecalis,[10],8 mg/L
same,MIC S. typhimurium,[4],18 mg/L
same,MIC S. aureus,[11],5 mg/L
same,MIC P. aeruginosa,[5]; PAO1,7 mg/L
same,MIC P. aeruginosa Muller Hinton Media,[5]; PAO1,7 mg/L
same,MIC P. aeruginosa With 10 μM Mg,[5]; PAO1,2 mg/L
same,MIC P. aeruginosa With 2 mM Mg,[5]; PAO1,8 mg/L
same,MIC against P. aeruginosa,[5]; PAO1,7 mg/L
same,MIC S. epidermidis,[6],1.5 mg/L
